In this assay the target is MS (malate synthase, GlcB, Rv1837c) (Mycobacterium tuberculosis, UniProt P9WK17). The experiment in a line: DTNB assay of released CoA-SH at […] nm. In kind it is biochemical.

A word on the IC50: it is the concentration needed to halve the response being measured.

MS (malate synthase, GlcB, Rv1837c), sequence (P9WK17 whole entry, looked up): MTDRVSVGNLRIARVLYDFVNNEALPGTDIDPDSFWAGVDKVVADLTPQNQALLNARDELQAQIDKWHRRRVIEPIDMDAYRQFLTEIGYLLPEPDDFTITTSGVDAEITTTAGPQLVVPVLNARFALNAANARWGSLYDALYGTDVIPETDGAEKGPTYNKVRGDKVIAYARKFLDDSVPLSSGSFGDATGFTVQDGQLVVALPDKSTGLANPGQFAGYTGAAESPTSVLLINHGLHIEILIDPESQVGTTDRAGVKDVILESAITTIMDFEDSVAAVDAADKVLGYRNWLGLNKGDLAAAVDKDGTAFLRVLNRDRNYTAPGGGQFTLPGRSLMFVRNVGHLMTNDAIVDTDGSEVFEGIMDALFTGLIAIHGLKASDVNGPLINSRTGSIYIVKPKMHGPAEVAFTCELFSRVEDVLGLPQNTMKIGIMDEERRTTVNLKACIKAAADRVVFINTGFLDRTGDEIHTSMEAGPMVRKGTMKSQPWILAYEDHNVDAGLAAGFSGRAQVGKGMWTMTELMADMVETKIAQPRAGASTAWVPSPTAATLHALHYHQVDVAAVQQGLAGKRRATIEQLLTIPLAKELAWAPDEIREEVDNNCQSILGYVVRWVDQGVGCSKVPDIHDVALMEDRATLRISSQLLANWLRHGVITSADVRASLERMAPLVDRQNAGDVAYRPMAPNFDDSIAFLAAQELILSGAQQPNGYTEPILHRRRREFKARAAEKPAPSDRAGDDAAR

As for `O=C(O)C(=O)CBr` [bromopyruvate], the concentration for half-maximal inhibition (IC50) came out at 114 µM.

Take `C=C(OP(=O)(O)O)C(=O)O` [phosphoenolpyruvate]: the half-inhibitory concentration (IC50) came out at 374 µM.

Values taken from paper PMC6849348, “Theranostic Application of a Novel G-Quadruplex-Forming DNA Aptamer Targeting Malate Synthase of Mycobacterium tuberculosis” (Molecular Therapy. Nucleic Acids, 2019).
